The source of these data is patent US20250129097.

Like-named read-outs stand apart in the source and are kept apart here.

The conditions of series [1]: from CCn1c(-c2cc(N3CCN(c4cccc(COC=O)c4)CC3)cnc2[C@H](C)OC)c(CC(C)(C)CO)c2cc([C@@H]3C[C@H]3CC[C@H](NC(=O)OC(C)(C)C)C(=O)N3CCC[C@@H](C(=O)O)N3)ccc21; ester bond; 18-membered ring; EDCI/HOBt/DIEA; DCM; 10.8 mM; 45.0 °C; 16.0 h.
For series [2] the following is noted: ester bond, 18-membered ring, EDCI/HOBt/DIEA, DCM.

`CCn1c(-c2cc(N3CCN(c4cccc(COC=O)c4)CC3)cnc2[C@H](C)OC)c2c3cc(ccc31)[C@@H]1C[C@H]1CC[C@H](NC(=O)OC(C)(C)C)C(=O)N1CCC[C@H](N1)C(=O)OCC(C)(C)C2`: the ring closure, yield after HPLC in series [1] amounted to 4.8%.

Regarding `CCn1c(-c2cc(N3CCN(C(=O)OCc4ccccc4)CC3)cnc2[C@@H](C)OC)c(CC(C)(C)CO)c2cc([C@H]3C[C@@H]3N(C)C[C@@H](NC(=O)OC(C)(C)C)C(=O)N3CCC[C@@H](C(=O)OC)N3)ccc21`, in series [2] (the molecule shown is the open-chain precursor, 10.3 mM, 35.0 °C), the ring closure, isolated yield amounted to 16%.

`CCn1c(-c2cccnc2[C@H](C)OC)c2c3cc(ccc31)[C@@H]1C[C@H]1OC[C@H](NC(=O)OC(C)(C)C)C(=O)N1CCC[C@H](N1)C(=O)OCC(C)(C)C2` displayed a ring closure, isolated yield in series [2] (from CCn1c(-c2cccnc2[C@H](C)OC)c(CC(C)(C)CO)c2cc([C@@H]3C[C@H]3OC[C@H](NC(=O)OC(C)(C)C)C(=O)N3CCC[C@@H](C(=O)O)N3)ccc21, 13.8 mM, 20.0 °C, 12.0 h) of 37%.
